How the values were obtained:
B16 melanoma cells = assay: Cell viability of B16 melanoma cells (DM1, cD31N-DM1); format: cell-based; settings: 0.0001 nm to 1000 nm, after 3 days
Text: (§1) Cancer cell lines were acquired from ATCC and cultured according to well known methods in the art. Treatment with cytotoxic agents, antibodies, or ADCs refers to the addition of the cytotoxic agent, antibody or ADC (i.e., DM1 or cD31N-DM1, etc.) to the culture media for a set duration.

[1] = tested on: Capan-1 pancreatic cancer cells; assay: Cell viability of Capan-1 cells (DM1, cD31N-DM1); format: cell-based; settings: after 6 days
Text: as §1

[2] = tested on: DAYO medulloblastoma cells; assay: Cell viability of DAYO cells (DM1, cD31N-DM1); format: cell-based; settings: after 3 days
Text: as §1

GL261 glioma cells = assay: Cell viability of GL261 cells (DM1, cD31N-DM1); format: cell-based; settings: after 6 days
Text: as §1

[3] = tested on: WT DLD-1 colorectal adenocarcinoma cells; assay: Cell viability assay in WT DLD-1 cells; format: cell-based, human; settings: after 6 days
Text: as §1
(§2) BRCA2 deficient (BRCA2′) cells are more sensitive to DM1 because BRCA2 participates in DNA double-stranded break (DSB) repair.
The viability assay protocol is set forth in Example 3.

[4] = tested on: BRCA2^−/− DLD-1 colorectal adenocarcinoma cells; assay: Cell viability assay in BRCA2-/- DLD-1 cells; format: cell-based, human; settings: BRCA2-/- DLD-1 cells, after 6 days
Text: as §1, §2

[5] = tested on: PEO-4 (WT) ovarian adenocarcinoma cells; assay: Cell viability of PEO-4 cells; format: cell-based; settings: WT PEO-4 cells, after 5 days
Text: as §1
(§3) The effects of longer-term treatment with SN38 and cD31N-SN38 on PEO-4 (WT) and PEO-1 (BRCA2^−/−) ovarian cancer cells were investigated.

[6] = tested on: PEO-1 (BRCA2^−/−) ovarian adenocarcinoma cells; assay: Cell viability of PEO-1 cells; format: cell-based; settings: BRCA2-/- PEO-1 cells, after 5 days
Text: as §1, §3

COc1cc2cc(c1Cl)N(C)C(=O)C[C@H](OC(=O)[C@H](C)N(C)C(=O)CCS)[C@]1(C)O[C@H]1[C@H](C)[C@@H]1C[C@@](O)(NC(=O)O1)[C@H](OC)/C=C/C=C(\C)C2 [DM1, N(2′)-deacetyl-N(2′)-(3-mercapto-1-oxopropyl)-maytansine]
cytotoxicity (cell viability) (B16 melanoma cells): cytotoxic to B16 melanoma cells in a concentration-dependent manner | cytotoxicity (cell viability) [1]: cytotoxic to the Capan-1 pancreatic cancer cells in a concentration-dependent manner | cytotoxicity (cell viability) [2]: cytotoxic to the DAYO medulloblastoma cells in a concentration-dependent manner | cytotoxicity (cell viability) (GL261 glioma cells): cytotoxic to the GL261 glioma cells in a concentration-dependent manner | cytotoxicity (cell viability) [3]: cytotoxic | cytotoxicity (cell viability) [4]: cytotoxic | cytotoxicity (cell viability) [5]: cytotoxic | cytotoxicity (cell viability) [6]: cytotoxic

From patent publication US20260207769A1, “ANTIBODY DRUG CONJUGATES” (YALE UNIVERSITY, priority 2022, published 2026)
